Results as given in ChEMBL document CHEMBL1129675, “New directions in antibacterial research” (1996).
Values after ≈ are worked out from the molar mass of the structure shown. Active and inactive are the calls of the source. No cut-off for these calls is given here. Residues, ends and D or L forms follow the SMILES beside them.

What was measured:
Enterococcus faecium [1] = assay: Inhibitory activity against VanA strain of E. faecium; Range is 2-64 ug/mL; assay type: functional
Bacteria = assay: Inhibitory activity against vancomycin-sensitive Gram-positive bacteria; assay type: functional
Enterococcus = assay: Inhibitory activity against vancomycin-resistant enterococci; assay type: functional
Enterococcus faecalis [2] = assay: Inhibitory activity against VanA strain of E. faecalis; Range is 2-64 ug/mL; assay type: functional
Providencia sp. = assay: In vitro inhibitory activity against Providencia species; assay type: functional
Streptococcus sp. [3] = assay: In vitro inhibitory activity against Streptococci; Range is 0.06-0.25 ug/mL; assay type: functional
Citrobacter freundii = assay: In vitro inhibitory activity against Citrobacter freundii; assay type: functional
Serratia marcescens = assay: In vitro inhibitory activity against Serratia marcescens; assay type: functional
Enterococcus faecalis [4] = assay: In vitro inhibitory activity against Enterococcus faecalis; assay type: functional
Staphylococcus aureus [5] = assay: In vitro inhibitory activity against ciprofloxacin resistant MRSA; assay type: functional
Enterobacter = assay: In vitro inhibitory activity against Enterobacteriaceae; Range is 0.016-0.5 ug/mL; assay type: functional
[6] = Antibacterial activity against penicillin resistant pneumococci was determined; Active; assay type: functional
Staphylococcus aureus [7] = assay: Antibacterial activity against MRSA was determined; Active; assay type: functional, organism-based
Enterococcus faecalis [8] = assay: Inhibitory activity against strain of E. faecalis; Range is 0.25-2 ug/mL; assay type: functional
Streptococcus pneumoniae [9] = assay: Inhibitory activity against S. pneumoniae; Range is 0.12-0.25 ug/mL; assay type: functional
Staphylococcus sp. [10] = assay: Inhibitory activity against ciprofloxacin resistant staphylococci; Range is 2-8 ug/mL; assay type: functional
Helicobacter pylori = assay: Antibacterial activity against Helicobacter pylori; Exhibits good activity; assay type: functional, organism-based
Haemophilus influenzae = assay: Antibacterial activity against Haemophilus influenzae; Active; assay type: functional, organism-based
[11] = Antibacterial activity against […] species.; More active; assay type: functional
[12] = Antibacterial activity against Legionella; More active; assay type: functional
Streptococcus sp. [13] = assay: Antibacterial activity against Streptococci; Retention of potent activity; assay type: functional, organism-based
Pasteurella multocida = assay: Antibacterial activity against Pasteurella multocida; More active; assay type: functional, organism-based
Chlamydia = assay: Antibacterial activity against Chlamydia; More active; assay type: functional, organism-based
Enterococcus faecium [14] = assay: Inhibitory activity against strain of Enterococcus faecium; assay type: functional
Staphylococcus sp. [15] = assay: Inhibitory activity against Staphylococci; assay type: functional
Streptococcus sp. [16] = assay: Inhibitory activity against all group A and B Streptococci; assay type: functional
Staphylococcus aureus [17] = assay: Inhibitory activity against MRSA; assay type: functional
Enterococcus faecalis [18] = assay: Inhibitory activity against strain of Enterococcus faecalis; assay type: functional
Streptococcus pyogenes = assay: Inhibitory activity against Streptococcus pyogenes; assay type: functional
Enterococcus faecium [19] = assay: Inhibitory activity against VanA strain of E. faecium; Range is 0.03-2 ug/mL; assay type: functional
[20] = Inhibitory activity against VanB enterococci; Range is 0.016-1 ug/mL; assay type: functional
Enterococcus faecalis [21] = assay: Inhibitory activity against VanA strain of E. faecalis; Range is 0.03-2 ug/mL
Streptococcus pneumoniae [22] = assay: Inhibitory activity against Streptococcus pneumoniae; assay type: functional
Pseudomonas aeruginosa = assay: Inhibitory activity against ciprofloxacin-resistant Pseudomonas aeruginosa; assay type: functional
Bacteroides fragilis = assay: Inhibitory activity against strain of Bacteroides fragilis; assay type: functional
Staphylococcus aureus [23] = assay: Inhibitory activity against ciprofloxacin-resistant Staphylococcus aureus; assay type: functional
Staphylococcus aureus [24] = assay: Inhibitory activity against strain of Staphylococcus aureus; assay type: functional
Enterococcus faecium [25] = assay: Inhibitory activity against vancomycin-resistant Enterococcus faecium; assay type: functional
Streptococcus pneumoniae [26] = assay: Inhibitory activity against penicillin-resistant Streptococcus pneumoniae; assay type: functional
Enterococcus faecium [27] = assay: Inhibitory activity against VanA strain of E. faecium; Range is 64-2108 ug/mL; assay type: functional
Enterococcus faecalis [28] = assay: Inhibitory activity against strain of Enterococcus faecalis resistant to both vancomycin and teicoplanin
Enterococcus faecium [29] = assay: Inhibitory activity against strain of Enterococcus faecium resistant to both vancomycin and teicoplanin; assay type: functional
Staphylococcus aureus [30] = assay: Inhibitory activity against Staphylococcus aureus; assay type: functional
[31] = system: Staphylococcus epidermidis; assay: Inhibitory activity against Staphylococcus epidermidis; assay type: functional
Mus musculus [32] = species: Mus musculus; assay: Inhibitory activity against Streptococcus pyogenes in mice; assay type: functional
Mus musculus [33] = species: Mus musculus; assay: Inhibitory activity against Streptococcus pneumoniae in mice; assay type: functional
Mus musculus [34] = species: Mus musculus; assay: Inhibitory activity against Staphylococcus aureus in mice; assay type: functional
[35] = Inhibitory activity against many clinical relevent pathogen; Range is 5-50 ug/mL; assay type: functional
Streptococcus sp. [36] = assay: Antibacterial activity against Streptococci; More active; assay type: functional, organism-based

## CN[C@H](CC(C)C)C(=O)N[C@H]1C(=O)N[C@@H](CC(N)=O)C(=O)N[C@H]2C(=O)N[C@H]3C(=O)N[C@](C)(C(=O)N[C@H](C(=O)O)c4cc(O)cc(O)c4-c4cc3ccc4O)[C@H](C[C@H]3C[C@](C)(N)[C@@H](O)[C@H](C)O3)c3ccc(c(Cl)c3)Oc3cc2cc(c3O[C@@H]2O[C@H](CO)[C@@H](O)[C@H](O)[C@H]2O[C@@H]2C[C@](C)(N)[C@@H](O)[C@H](C)O2)Oc2ccc(cc2Cl)[C@H]1O [VANCOMYCIN DERIVATIVE (EPIVANCOMYCIN LINKED WITH ADDITIONAL AMINO SUGAR)]
Enterococcus faecium [1]
  MIC: 2 µg/mL (≈ 1.25 µM)
Bacteria
  MIC: 32 µg/mL (≈ 19.9 µM)
Enterococcus
  MIC: 500 µg/mL (≈ 312 µM)
Enterococcus faecalis [2]
  MIC: 2 µg/mL (≈ 1.25 µM)

## NC1CCN(c2c(F)cc3c(=O)c(C(=O)O)cn(C4CC4)c3c2Cl)C1 (stereo not given) [CLINAFLOXACIN]
Providencia sp.
  MIC90: 0.5 µg/mL (≈ 1.37 µM)
Streptococcus sp. [3]
  MIC90: 0.06 µg/mL (≈ 0.164 µM)
Citrobacter freundii
  MIC90: 0.5 µg/mL (≈ 1.37 µM)
Serratia marcescens
  MIC90: 0.5 µg/mL (≈ 1.37 µM)
Enterococcus faecalis [4]
  MIC90: 0.5 µg/mL (≈ 1.37 µM)
Staphylococcus aureus [5]
  MIC90: 1 µg/mL (≈ 2.73 µM)
Enterobacter
  MIC90: 0.016 µg/mL (≈ 0.0437 µM)

## C[C@@H](O)[C@H]1C(=O)N2C(C(=O)[O-])=C(c3ccc4c(c3)-c3ccc(C[n+]5ccn(C)c5)cc3C4=O)C[C@H]12
[6]
  Activity: Active
Staphylococcus aureus [7]
  Activity: Active

## N[C@@H]1[C@H]2CN(c3nc4c(cc3F)c(=O)c(C(=O)O)cn4-c3ccc(F)cc3F)C[C@@H]12 [TROVAFLOXACIN]
Enterococcus faecalis [8]
  MIC: 0.25 µg/mL (≈ 0.6 µM)
Streptococcus pneumoniae [9]
  MIC: 0.12 µg/mL (≈ 0.288 µM)
Staphylococcus sp. [10]
  MIC: 2 µg/mL (≈ 4.8 µM)

## CC[C@H]1OC(=O)[C@H](C)[C@@H](OC2CC(C)(O)C(O)C(C)O2)[C@H](C)[C@@H](OC2OC(C)CC(N(C)C)C2O)[C@](C)(OC)C[C@@H](C)C(=O)[C@H](C)[C@@H](O)[C@]1(C)O (stereo not given in full)
Helicobacter pylori
  Activity: Exihibits good activity
Haemophilus influenzae
  Activity: Active
[11]
  Activity: Active
[12]
  Activity: Active
Streptococcus sp. [13]
  Activity: Exihibits good activity
Pasteurella multocida
  Activity: Active
Chlamydia
  Activity: Active

## N[C@@H]1CN(c2c(F)cc3c(=O)c(C(=O)O)cn(C4C[C@@H]4F)c3c2Cl)CC12CC2 (single isomer, unassigned) [SITAFLOXACIN ANHYDROUS]
Enterococcus faecium [14]
  MIC90: 0.5 µg/mL (≈ 1.22 µM)
Staphylococcus sp. [15]
  MIC90: ≤ 0.06 µg/mL
Streptococcus sp. [16]
  MIC90: ≤ 0.125 µg/mL
Staphylococcus aureus [17]
  MIC90: 1 µg/mL (≈ 2.44 µM)
Enterococcus faecalis [18]
  MIC90: 1 µg/mL (≈ 2.44 µM)

## CCCCCOc1ccc(CN[C@@]2(C)C[C@@H](O[C@H]3[C@H](Oc4c5cc6cc4Oc4ccc(cc4Cl)[C@@H](C[C@H]4C[C@](C)(N)[C@@H](O)[C@H](C)O4)[C@]4(C)NC(=O)[C@H](NC(=O)[C@@H]6NC(=O)[C@H](CC(N)=O)NC(=O)[C@H](NC(=O)[C@@H](CC(C)C)NC)[C@H](O)c6ccc(c(Cl)c6)O5)c5ccc(O)c(c5)-c5c(O)cc(O)cc5[C@@H](C(=O)O)NC4=O)O[C@H](CO)[C@@H](O)[C@@H]3O)O[C@@H](C)[C@@H]2O)cc1
Streptococcus pyogenes
  MIC: < 0.06 µg/mL
Enterococcus faecium [19]
  MIC: 0.03 µg/mL (≈ 0.0168 µM)
[20]
  MIC: 0.016 µg/mL (≈ 0.00898 µM)
Staphylococcus aureus [17]
  MIC: ≤ 0.5 µg/mL
Enterococcus faecalis [21]
  MIC: 0.03 µg/mL (≈ 0.0168 µM)
Streptococcus pneumoniae [22]
  MIC: < 0.008 µg/mL

## Cc1c(N2CC[C@H](N)C2)c(F)cn2c(=O)c(C(=O)O)cc(C3CC3)c12 [ABT-719]
Pseudomonas aeruginosa
  MIC90: 2 µg/mL (≈ 5.79 µM)
Bacteroides fragilis
  MIC90: 0.06 µg/mL (≈ 0.174 µM)
Staphylococcus aureus [23]
  MIC90: 0.25 µg/mL (≈ 0.724 µM)
Staphylococcus aureus [24]
  MIC90: 0.015 µg/mL (≈ 0.0434 µM)
Enterococcus faecium [25]
  MIC90: 0.5 µg/mL (≈ 1.45 µM)
Streptococcus pneumoniae [26]
  MIC90: 0.03 µg/mL (≈ 0.0869 µM)

## CN[C@H](CC(C)C)C(=O)N[C@H]1C(=O)N[C@@H](CC(N)=O)C(=O)N[C@H]2C(=O)N[C@H]3C(=O)N[C@H](C(=O)N[C@H](C(=O)O)c4cc(O)cc(O)c4-c4cc3ccc4O)[C@H](O)c3ccc(c(Cl)c3)Oc3cc2cc(c3O[C@@H]2O[C@H](CO)[C@@H](O)[C@H](O)[C@H]2O[C@H]2C[C@](C)(N)[C@H](O)[C@H](C)O2)Oc2ccc(cc2Cl)[C@H]1O [VANCOMYCIN]
Enterococcus faecium [27]
  MIC: 64 µg/mL (≈ 44.2 µM)
Enterococcus faecalis [28]
  MIC: ≥ 128 µg/mL
Enterococcus faecium [29]
  MIC: ≥ 128 µg/mL

## CCN(CC)CCS(=O)(=O)[C@@H]1CCN2C(=O)c3coc(n3)CC(=O)C[C@H](O)/C=C(C)/C=C/CNC(=O)/C=C/[C@@H](C)[C@@H](C(C)C)OC(=O)[C@@H]12 [DALFOPRISTIN]
Staphylococcus aureus [30]
  MIC90: 1 µg/mL (≈ 1.45 µM)
[31]
  MIC90: 0.5 µg/mL (≈ 0.724 µM)

## CNC(=O)C[C@@H]1NC(=O)c2csc(n2)-c2ccc(-c3nc(C4=N[C@H](C(=O)N5CCC[C@H]5C(N)=O)CO4)cs3)nc2-c2csc(n2)-c2csc(n2)[C@H]([C@@H](O)c2ccccc2)NC(=O)CNC(=O)c2nc(sc2COC)[C@H](C(C)C)NC(=O)c2nc1sc2C
Mus musculus [32]
  ED50: 9.1 mg/kg
Mus musculus [33]
  ED50: 15.2 mg/kg
Mus musculus [34]
  ED50: 1.8 mg/kg

## CC[C@H](C)[C@H](NC(=O)CN)C(=O)NCC(=O)N[C@@H](CCCCN)C(=O)N[C@@H](Cc1ccccc1)C(=O)N[C@@H](CC(C)C)C(=O)N[C@@H](Cc1c[nH]cn1)C(=O)N[C@@H](CO)C(=O)N[C@@H](C)C(=O)N[C@@H](CCCCN)C(=O)N[C@@H](CCCCN)C(=O)N[C@@H](Cc1ccccc1)C(=O)NCC(=O)N[C@@H](CCCCN)C(=O)N[C@@H](C)C(=O)N[C@@H](Cc1ccccc1)C(=O)N[C@H](C(=O)NCC(=O)N[C@@H](CCC(=O)O)C(=O)N[C@H](C(=O)N[C@@H](CCSC)C(=O)N[C@@H](CC(N)=O)C(=O)N[C@@H](CO)C(=O)O)[C@@H](C)CC)C(C)C [MAGAININ 2] (H-GIGKFLHSAKKFGKAFVGEIMNS-OH)
[35]
  MIC: 5 µg/mL (≈ 2.03 µM)

## CC[C@H]1OC(=O)[C@H](C)[C@@H](O[C@H]2C[C@@](C)(OC)[C@@H](O)[C@H](C)O2)[C@H](C)[C@@H](O[C@@H]2O[C@H](C)C[C@H](N(C)C)[C@H]2O)[C@](C)(O)C[C@@H](C)CN(C)[C@H](C)[C@@H](O)[C@]1(C)O
Haemophilus influenzae
  Activity: Active
[11]
  Activity: Active
[12]
  Activity: Active
Pasteurella multocida
  Activity: Active
Chlamydia
  Activity: Active
Streptococcus sp. [36]
  Activity: Active
